Structures are written as SMILES. Entries after “also recorded” stand apart in the source; their conditions may differ. Where two headings read alike, the source gives them in different places.

Data on one compound can be found in US20250199015A1, “CYCLIN-DEPENDENT KINASE 2 INHIBITORS FOR MEDICAL TREATMENT” (INCYCLIX BIO, LLC, priority 2022, published 2025).

For one data set, the system named is MKN1 cells. As to the kind of experiment: Cell cycle by EdU flow cytometry with washout. The class given is cell-based, human. To be noted: 300 nM, 24 hr post-initial treatment (0 hr after washout). As to the method:
The MKN1 human stomach carcinoma cell line was grown in RPMI-1640/1× Glutamax/10% heat inactivated fetal bovine serum and was plated at 300,000 cells/well in 6 cm tissue culture treated plates. […] At 24 hours, the remaining plates were rinsed with media before un-treated media was added back. Cells were collected at the indicated times, with 10 μM EdU added for the last hour (FIG. 21A). Cells were collected and fixed in 1% paraformaldehyde. Cells were incubated with Pacific blue azide dye as described by Thermo Scientific. Cells were then incubated with FarRed dye and RNase. Cells were analyzed on a BD Celesta and data compiled using FloJo and GraphPad. Approximately 95% of MKN1 cells were arrested at G1 at 24 hr post-initial treatment (0 hr after washout) (FIG. 21B). […] At 48 hr post-washout, MKN1 cells were synchronized.

A further data set addresses MATE1 (Homo sapiens, UniProt Q96FL8). Nature of the data set: SLC transporter inhibition in HEK293 cells.
Data set [1] concerns HCC-1569 cell loaded Hollow Fibers. Nature of the data set: Mouse hollow fiber assay (CellTiter Glo). The class given is in vivo, mice. To be noted: 75, 100, 150 mg/kg twice daily, Day 16. Here is the method:
The mouse hollow fiber assay was conducted using three tumor cell lines, OVCAR-3 (ovarian), MKN-1 (gastric), and HCC-1569 (breast), 1e7 OVCAR-3, 5e6 MKN-1, and 1e7 HCC-1569 cells were loaded into Hollow Fibers, placed in cell culture dishes containing RPMI-1640 with 20% FCS and 1% penicillin/streptomycin, and were equilibrated in an incubator at 37 C, 5% CO2 overnight. On Day 0, three fibers were implanted in two different compartments: subcutaneous and intraperitoneal of twenty-four female NMRI nude mice ages 4-5 weeks. […] Female NMRI nude mice were implanted both subcutaneously and intraperitoneally with HCC-1569, MKN1, and OVCAR3 tumor cell-loaded Hollow Fibers on Day 0. The number of animals alive on Day 0 (implantation) and on Day 16 (necropsy) in each group is shown in parentheses in the legend.
HCC-1569 cell loaded Hollow Fibers were implanted both subcutaneously and intraperitoneally into female NMRI nude mice on Day 0. Hollow Fibers were collected during necropsy on Day 16 and analyzed using a CellTiter Glo® assay.

Data set [2] has as its system MCF7PDRC15-1 palbociclib resistant breast cancer cells. Nature of the data set: CellTiter-Glo viability, palbociclib-resistant MCF7. The class given is cell-based. Particulars: Homo sapiens. Here is the method: Plates were removed from incubator on day six and treated with CellTiter-Glo (Promega, Inc) following manufacturer's specifications. Plates were then read on Biotek luminometer with 1 sec/well integration. Results were converted to Microsoft Excel and transferred to Graphpad Prism for analysis.
The Palbo-R MCF7PDRCL5-1 cells were grown in EMEM, glutamax, 10% FBS, 1×ITS. […] Plates were removed from incubator on day six and treated with CellTiter-Glo (Promega, Inc) following manufacturer's specifications. Plates were then read on Biotek luminometer with 1 sec/well integration. Results were converted to Microsoft Excel and transferred to Graphpad Prism for analysis.
In a similar manner, Palbo-R MCF7PDRCL5-1 cells were grown in EMEM, Glutamax, 10% FBS, 1×ITS. […] Plates were removed from incubator on day six and treated with CellTiter-Glo (Promega, Inc) following manufacturer's specifications. Plates were then read on Biotek luminometer with 1 sec/well integration. Results were converted to Microsoft Excel and transferred to Graphpad Prism for analysis.
(ATP-based viability assays read luminescence as a measure of living cells.)

In the next data set the test system is H526 cells. As to the kind of experiment: CellTiter Glo cell proliferation assay (single agent and chemotherapy combination). The class given is cell-based, human. As to the method:
Plates returned to incubator for six additional days. On day six post dosing, plates were removed and treated with CellTiter Glo reagent following manufacturer's specifications. Plates incubated 45 minutes at room temperature and run on a Biotek luminometer with 1 sec/well detection. Results were converted to Microsoft Excel and transferred to GraphPad Prism for analysis.
Cells were plated at 250 cells per well in white wall/clear bottom plates and incubated overnight. […] Plates returned to the incubator for six additional days. On day six post dosing, plates were removed and treated with CellTiter Glo reagent following manufacturer's specifications. Plates incubated 45 minutes at room temperature and run on a Biotek luminometer with 1 sec/well detection. Results were converted to Microsoft Excel and transferred to GraphPad Prism for analysis.
Dose curves ranged from 300 pM to 10 μM in triplicate and treatments lasted for 6 days. Plates were removed from incubator at each specified timepoint and treated with CellTiter-Glo (Promega, Inc) following manufacturer specifications. Plates were then read on CLARIOstar luminometer with 1 sec/well integration.
Dose curves ranged from 300 pM to 10 μM in triplicate and treatments lasted for 6 days. Plates were removed from incubator at each specified timepoint and treated with CellTiter-Glo (Promega, Inc) following manufacturer specifications. Plates were then read on CLARIOstar luminometer with 1 sec/well integration. Results were converted to Microsoft Excel and transferred to GraphPad Prism for Analysis.

For data set [3], the system named is T47D parental and therapy-resistant cells. As to the kind of experiment: Cell cycle by BrdU flow cytometry in therapy-resistant cells. Type of data set: cell-based, human. To be noted: Compound I with abemaciclib (LYR) or abemaciclib and fulvestrant (LYFR), 7 days. Here is the method: The therapy resistant cells were previously incubated with abemaciclib, fulvestrant, and/or palbociclib for prolonged periods to the point of developing drug resistance. Cells were plated in Corning 6 well tissue culture treated plates. Cells were treated for 7 days. Media was spiked with 10 μM BrdU prior to collection. Cells were washed in PBS, trypsinized, collected and centrifuged at 300 RCF for 5 mins. Cells were resuspended in cell culture media and transferred into a 96 well V-bottom plate with roughly 300,000 cells per well. Cells were then stained using the Near-IR Fixable Viability Stain (Invitrogen Cat. L34976) for 20 mins at room temperature, protected from light. Cells were fixed and permeabilized using eBioscience FoxP3/Transcription Factor Staining Buffer Set (Cat. 00-5523-00). DNA was denatured using 2N HCl+0.5% (v/v) Triton X-100 for 30 mins room temperature, agitating every 5-10 mins. The acid was neutralized using 0.1M Na2B4O7·10H2O (pH 8.5) followed by 0.5% BSA in PBS. Cells were then stained with BrdU antibody (Clone 3D4, BioLegend Cat. 364118) for 1 hour at room temperature. Prior to acquisition on the BD A3 Symphony, DNA was stained for 30 minutes using FxCycle Violet ReadyFlow Reagent.
Cell staining was then conducted to monitor cellular proliferation and perform cell cycle analysis of these therapy-resistant cells. […] Similarly, abemaciclib- and fulvestrant-resistant (LYFR) cells administered abemaciclib and fulvestrant were not substantially arrested in the G1 phase (FIG. 147H).
(Flow cytometry measures light scatter and fluorescence of single cells or particles in a stream.)

MATE1, sequence (Q96FL8 whole entry): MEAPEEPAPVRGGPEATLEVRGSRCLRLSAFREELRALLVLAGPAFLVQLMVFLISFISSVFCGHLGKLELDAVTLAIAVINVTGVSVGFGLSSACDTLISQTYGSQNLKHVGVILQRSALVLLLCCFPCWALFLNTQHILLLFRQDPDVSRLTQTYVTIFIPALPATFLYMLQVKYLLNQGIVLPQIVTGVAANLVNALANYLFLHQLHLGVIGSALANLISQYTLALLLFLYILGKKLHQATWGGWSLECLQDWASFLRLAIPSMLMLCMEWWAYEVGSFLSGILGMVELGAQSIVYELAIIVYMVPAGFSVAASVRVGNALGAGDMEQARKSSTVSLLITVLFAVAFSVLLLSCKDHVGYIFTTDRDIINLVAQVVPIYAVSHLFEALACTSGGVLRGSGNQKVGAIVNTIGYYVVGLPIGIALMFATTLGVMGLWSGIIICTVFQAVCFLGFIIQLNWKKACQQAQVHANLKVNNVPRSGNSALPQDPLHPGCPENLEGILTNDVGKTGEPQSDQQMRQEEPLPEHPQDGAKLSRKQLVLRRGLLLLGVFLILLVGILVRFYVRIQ

One may read the IC50 as the concentration that inhibits the measured activity by half. The term inhibition denotes the relative decrease from the control value, in per cent. Lower therefore signals a response near the control. For `NS(=O)(=O)c1ccc(Nc2ncc3cc4n(c3n2)C2(CCCCC2)C(=O)NN4)cc1` [Compound I], in the data set on MKN1 cells, the “cells arrested at G1” value was “Approximately 95%”. The IC50 came out at 13300 nM against MATE1 (MATE1 IC50); 995 nM in data set [2] (MCF7, read-out: Cell Viability IC50, Compound I alone, absence of palbociclib); 17 nM in data set [2] (MCF7, read-out: Cell Viability IC50, in the presence of 1 μM palbociclib); 62 nM in the data set with H526 cells (Homo sapiens, NCI-H526, 144 h, six days). This compound registered an inhibition at 20 μM on MATE1 (human, HEK293 cells expressing MATE1, probe metformin (10 μM)) of 62%. Moreover, the “tumor bioluminescence signal (CellTiter Glo) of Hollow Fibers” value in data set [1] is reported as “significant reduction”. In the data set with H526 cells (100 nM Compound I with camptothecin dose curve, 6 days), the “cellular proliferation IC50, combined with camptothecin, versus single agents” value was “comparable”. The “inhibition compared with palbociclib” value in the data set on H526 cells (six days) was “low nanomolar concentrations”. In addition, the “cell cycle arrest of therapy-resistant cells” value in data set [3] is given as “arrested in G1; also recorded: arrested therapy-resistant LYR cells”.
